We go through 8 compounds from US7704508B2, “Babesia subtilisin” (New York Blood Center, priority 2007, dated 2010).

Assay [1] has as its system B. divergens. Nature of the assay: Effect of protease inhibitors on B. divergens growth in culture (parasitemia by YOYO-1 flow cytometry, T72). The assay is classed as cell-based. The conditions noted are these: for inhibition of growth / decrease of parasitemia after 72 h: 50 and 100 μM, compared to control; for Growth T72 50 μM (inhibition) / Growth T72 100 μM (inhibition) / inhibition at 50 µM / inhibition at 100 µM: T72. The method, then: (§1) Parasitemia for B. divergens was assessed in human RBCs using a modification of the methods of Barkan et al. (Int. J. Parasitol. 30:649-53, 2000) and Jimenez-Diaz et al. (Cytometry A 67:27-36, 2005), both of which are incorporated by reference herein for all they contain regarding assessment of parasitemia. DNA content was measured after staining with YOYO-1 (a high affinity cell-impermeant dye that increases green fluorescence by 1000-fold when bound to dsDNA) observed infected erythrocytes compared with non-infected human erythrocytes for B. divergens.
(§2) To assess the effect of various protease inhibitors, parasitemia was assessed in 180 parasite samples taken at different time points (0 and after 10, 24, 48 and 72 h). In parallel with the evaluation of the parasitemia by FACS (fluorescence activated cell sorting), 60 random parasite samples were analyzed by light microscopy using Giemsa-stained thin blood smears, with 500-1000 RBCs being counted for each smear. […] Integration of the numbers of events represented in the right peak provides a direct estimate of the parasitemia, where one infected cell is one event.
(§3) Protease inhibitors were tested for their ability to inhibit the invasion and growth of B. divergens in vitro.
(§4) The effects of EGTA, a chelating agent capable of binding metal ions including Ca^2+, on the invasion and growth of B. divergens was tested. EGTA cannot permeate the biological membrane of cells so its effects are only on the chelation of extracellular ions. As many serine proteases require Ca^2+ for activity, EGTA also functions as a serine protease inhibitor.
On the technique in general: Flow cytometry measures light scatter and fluorescence of single cells or particles in a stream.

Assay [2] concerns B. divergens. As to the kind of experiment: Effect of protease inhibitors on B. divergens erythrocyte invasion (parasitemia by YOYO-1 flow cytometry, T10). The format is cell-based. The note with it: for inhibition of invasion: 50 and 100 μM, relative to control; for inhibition at 50 µM / inhibition at 100 µM: Erythrocyte. The method, then:
as §1, §2, §3, §4

Assay [3] deals with BdSUB-1. As to the kind of experiment: Effect of brefeldin A on BdSUB-1 processing during secretory transport (western blot). The format is cell-based, B. divergens. The note with it: 40 μg/ml BFA in methanol, 1 hour, 37° C., western blot with PfSUB1m antibodies. As for the experimental part:
Monitoring the effect of brefeldin A. The effects of brefeldin A (BFA, Sigma) on BdSUB-1 processing during secretory transport was monitored using ^35S-radiolabeled B. divergens cultures. The drug was prepared as a stock solution in methanol at 1 mg ml^−1 and then added to parasite cultures to a final concentration of 40 μg ml^−1 BFA. Methanol was added to the control cultures and cells were cultured at 37° C. in a […], 5% nitrogen and 5% oxygen for 1 hour. Samples were washed in PBS, lysed in saponin buffer and analyzed by western blot using the anti-PfSUB1m antibodies.
BdSUB-1 undergoes post-translational processing during secretory transport. […] In order to examine whether BdSUB-1 undergoes intracellular post-translational processing steps within the parasite secretory pathway, brefeldin A (BFA) was employed, which blocks secretory transport of proteins from the endoplasmic reticulum (ER) to the Golgi apparatus. Western-blot analysis was performed on parasite lysates that were obtained from cultures grown in the presence or absence of BFA, using anti-PfSUB1m antibodies. […] Thus, BdSUB-1 is initially synthesized as a large precursor protein of ˜78 kDA and cleavage of the signal peptide results in the formation of p75, which is the largest detectable protein seen in the assays. This p75 is then processed to p55, which then gets converted to p48 in the Golgi. […]
Background: A western blot detects proteins with antibodies after separation by electrophoresis.

SMILES strings stand for the structures. Starred links: 1 amine or outer side, 2 acyl side, 3 side chain; linkers in the order of their positions; H or OH if unused. Non-standard residues stand in square brackets, D forms with d. Residues, ends and D or L forms follow the SMILES beside them. ξ: configuration not given here. *: point of attachment. Sta = CC(C)C[C@H](N)[C@@H](O)CC(=O)O; Isovaleryl = CC(C)CC(=O)*; ξF = NC(Cc1ccccc1)C(=O)O; CO = O=C([*:1])[*:2]

Take `O=c1oc(Cl)c(Cl)c2ccccc12` [3,4 DCI]: in assay [1], the “Growth T72 50 μM (inhibition)” value was determined as 70.7 ± 1.4%, the “Growth T72 100 μM (inhibition)” value amounted to 76.0 ± 2.3% and the “inhibition of growth / decrease of parasitemia after 72 h” value amounted to 76%. Further, in assay [2] (T10), the “Invasion T10 50 μM (inhibition)” value is recorded as 38.0 ± 2.0% and the “Invasion T10 100 μM (inhibition)” value is listed as 43.0 ± 1.2%. In addition, the “inhibition of invasion” value in assay [2] was 40%.

As to `NCCc1ccc(S(=O)(=O)F)cc1` [ABSF, 4-(2-aminoethyl)benzenesulfonyl fluoride], in assay [1], the “Growth T72 50 μM (inhibition)” value turned out to be 8.8 ± 7.4% and the “Growth T72 100 μM (inhibition)” value was 28.0 ± 5.0%. Moreover, in assay [2] (T10), the “Invasion T10 50 μM (inhibition)” value is on record as 3.3 ± 6.8% and the “Invasion T10 100 μM (inhibition)” value is recorded as 34.0 ± 9.0%.

In general, inhibition refers to the share of the control response that was lost under treatment. A lower inhibition goes with little suppression. For `CC(C)[C@H](NC(=O)[C@H](CCCNC(=N)N)NC(=O)NC(Cc1ccccc1)C(=O)O)C(=O)N[C@H](C=O)CCCNC(=N)N` (stereo partly drawn) [Antipain, (1-carboxy-2-phenylethyl)carbamoyl-L-arginyl-L-valylargininal] ({ξF-CO}-Arg-Val-Arg-aldehyde), in assay [1], the inhibition at 50 µM was 15 ± 8.4% and 100 µM produced 16 ± 8.5% inhibition. Further, in assay [2] (T10), the inhibition at 50 µM is 33 ± 6.5% and the inhibition at 100 µM turned out to be 37.7 ± 14.1%.

As for `C[C@H]1CCC/C=C/[C@@H]2C[C@H](O)C[C@H]2[C@H](O)/C=C/C(=O)O1` [BFA, brefeldin A], the “BdSUB-1 processing / secretory transport” value in assay [3] is reported as “blocked the secretory transport of BdSUB-1 from the ER to the Golgi apparatus”.

For `O=C(O)CN(CCOCCOCCN(CC(=O)O)CC(=O)O)CC(=O)O` [EGTA, ethylene glycol tetraacetic acid], in assay [1], the “Growth T72 1 mM (inhibition)” value was 82.0 ± 0.4%; the “Growth T72 3 mM (inhibition)” value is reported as 83.0 ± 0.5%; the “growth of the parasite after 72 h, lower than the control” value was determined as 83%. The “Invasion T10 1 mM (inhibition)” value in assay [2] (1 mM, T10) is on record as 48.0 ± 3.1%. In addition, the “Invasion T10 3 mM (inhibition)” value in assay [2] (3 mM, T10) was determined as 52.0 ± 2.6%. In addition, the “reversal of inhibition of invasion and growth by Ca2+” value in assay [2] (Ca2+ added in the same concentration as EGTA) was “completely reversed”. In addition, in assay [2] (EGTA 1, 2 and 3 mM), the “percentage of inhibition on invasion” value was found to be 50%.

For the compound `O=S(=O)(F)Cc1ccccc1` [PMSF, phenylmethylsulfonyl fluoride], in assay [1], the “Growth T72 50 μM (inhibition)” value came to 45.0 ± 5.2% and the “Growth T72 100 μM (inhibition)” value was 46.7 ± 3.3%. Moreover, in assay [2] (T10), the “Invasion T10 50 μM (inhibition)” value was found to be 28.0 ± 8.9% and the “Invasion T10 100 μM (inhibition)” value was 35.0 ± 18.0%.

In assay [1], `CC(C)CC(=O)N[C@H](C(=O)N[C@H](C(=O)N[C@@H](CC(C)C)[C@@H](O)CC(=O)N[C@@H](C)C(=O)N[C@@H](CC(C)C)[C@@H](O)CC(=O)O)C(C)C)C(C)C` [Pepstatin, pepstatin] (Isovaleryl-VV[Sta]A[Sta]-OH) yielded an inhibition at 50 µM of 9.1 ± 3.1% and an inhibition at 100 µM of 16 ± 9.2%. Besides, in assay [2] (T10), the inhibition at 50 µM turned out to be 17 ± 6.4% and 100 µM produced 2 ± 0.8% inhibition.

Take `Cc1ccc(S(=O)(=O)N[C@@H](CCCCN)C(=O)CCl)cc1` [TLCK, N-α-tosyl-L-lysine chloromethyl ketone]: in assay [1], the “Growth T72 50 μM (inhibition)” value is 92.1 ± 3.0%, the “Growth T72 100 μM (inhibition)” value is listed as 94.1 ± 0.9% and the “inhibition of growth / decrease of parasitemia after 72 h” value is on record as “approximately 90%”. In addition, the “morphology of the parasites during invasion and growth inhibition assay” value in assay [1] (microscopy of treated cultures) is on record as “no alteration in the morphology of the parasites”. In addition, in assay [2] (T10), the “Invasion T10 50 μM (inhibition)” value is on record as 64.0 ± 3.1% and the “Invasion T10 100 μM (inhibition)” value is listed as 60.0 ± 2.0%. In addition, in assay [2], the “inhibition of invasion” value is on record as about 60%.
